Measurements published in patent US20160106692A1 (priority 2014, published 2016).
Entries after “also recorded” stand apart in the source; their conditions may differ.

How the values were obtained:
[1] = tested on: Influenza Virus A/California/07/2009 H1N1; assay type: cell-based
[2] = tested on: Influenza Virus A/Maryland/04/2011 H1N1; assay type: cell-based

SMILES: CCOC(=O)C1=C[C@@H](OC(CC)CC)[C@H](NC(C)=O)[C@@H](N)C1 [Oseltamivir]
- plaque inhibition, result in words [1]: sensitive to this drug to 1 μM; also recorded: showed inhibitory effects
- plaque inhibition, result in words [2]: only partially sensitive; also recorded: reduced oseltamivir susceptibility
